The record followed here is patent US20250084074A1, “SUBSTITUTED HETEROCYCLES AS HSET INHIBITORS” (MERCK PATENT GMBH, priority 2022, published 2025).

Chain of HSET full length protein (Q9BW19 whole entry): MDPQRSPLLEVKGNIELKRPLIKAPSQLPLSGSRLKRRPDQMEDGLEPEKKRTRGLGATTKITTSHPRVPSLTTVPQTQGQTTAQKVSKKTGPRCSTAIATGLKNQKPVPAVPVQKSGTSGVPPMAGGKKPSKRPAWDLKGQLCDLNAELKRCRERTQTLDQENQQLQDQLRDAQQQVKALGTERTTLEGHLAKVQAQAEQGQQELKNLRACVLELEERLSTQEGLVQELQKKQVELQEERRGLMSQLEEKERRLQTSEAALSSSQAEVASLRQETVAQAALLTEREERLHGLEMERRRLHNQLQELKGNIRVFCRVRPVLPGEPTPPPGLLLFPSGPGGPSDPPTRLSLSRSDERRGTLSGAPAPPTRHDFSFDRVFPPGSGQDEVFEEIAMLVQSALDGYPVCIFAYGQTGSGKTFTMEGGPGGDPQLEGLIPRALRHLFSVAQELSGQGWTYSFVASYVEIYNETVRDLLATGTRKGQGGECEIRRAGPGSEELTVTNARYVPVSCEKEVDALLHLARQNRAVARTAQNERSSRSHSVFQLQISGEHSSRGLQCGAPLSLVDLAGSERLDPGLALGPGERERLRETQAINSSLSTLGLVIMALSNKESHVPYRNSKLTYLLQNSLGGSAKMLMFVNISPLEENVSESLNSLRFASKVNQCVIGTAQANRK

The assay has as its target HSET full length protein (Homo sapiens (Human), UniProt Q9BW19). In words: HSET ADP-Glo Assay S - 3 μM ATP. The class given is biochemical. To be noted: 5 nM HSET, 70 μg/mL microtubule, 80 min at rt, read-out: COMBINED HSET ADP GLO IC50. The method, then: Example 281: Testing compounds of the present invention for inhibitory activities against HSET—HSET ADP-Glo Assay S—3 μM ATP
Reagents: (+4° C. Storage) • Paclitaxel Prod.No.TXD.01 2 mM in DMSO (from Universal Biologicals Cambridge). • Tubulin Protein (Pre-formed Microtubules): Bovine Brain Prod.No.MT001-XL Lot.025 10 mg/mL (from Universal Biologicals Cambridge).
Reagents: (−80° C. Storage) • MT001-XL—Tubulin Protein (Pre-formed Microtubules): Bovine Brain—reconstituted in buffer—15 mM PIPES pH7, 1 mM MgCl2, 20 μM paclitaxel (aliquots at 10 mg/mL) from Universal Biologicals Cambridge. • HSET full length protein—Current batch is FL HSET Prep1 (SEQ-000096_002-01_01) • Buffer is 20 mM Hepes pH 7.5, 200 mM NaCl, 2 mM TCEP, 5% glycerol (5 μL aliquots at 10.2 μM)
Reagents: (−20° C. Storage) • ADP-Glo Kinase Assay kit (Promega Prod.No.V9102) 10,000 assay points • ADP-Glo reagent (50 mL), Kinase Detection Reagent (100 mL), and Ultrapure ATP (10 mM) aliquoted
Buffer Stocks (filtered and stored at rt for up to 1 month) • HEPES acid, 4-(2-Hydroxyethyl)piperazine-1-ethanesulfonic acid MW:238, 238.3 mg/mL=1 M • 7149 mg/30 mL=1M (pH to 6.8 with 5 M NaOH) • PIPES, 1,4-Piperazinediethanesulfonic acid MW: 302.4, 30.24 mg/mL=100 mM; 907.2 mg/30 mL=100 mM (pH to 7 with 5 M NaOH, white cloudy suspension until the pH changes) • EGTA, Ethylene glycol-bis(2-aminoethylether)-N,N,N′,N′-tetraacetic acid MW: 380.35, 38.035 mg/mL=100 mM • 1901.75 mg/50 mL=100 mM (pH to ˜7 with 5 M NaOH)—takes a long time to get into solution and for pH to stabilize • Triton-X-100, MW: 625, 62.5 mg/mL=100 mM (6.25% w/v) (viscous, pipette Triton X-100 with a Gilson using a trimmed pipette tip)
ECHO Protocol • Create an ECHO intermediate plate by adding 24.5 μL DMSO to columns 1 & 2, and 40 μL DMSO to columns 23 & 24 of an ECHO 384PP plate • Add 100 nL of compound/DMSO per well in 384-well Proxi-Plate Plus (white) —Perkin Elmer Cat #6008289 using ECHO dose response protocol 100 nL normal to proxi_8pt_200 uM.
Assay buffer (Keep on ice): HEPES pH 6.8, MgCl2, EGTA, Triton X-100, DTT, HPLC H2O Microtubule Working Solution (3.2): • 1 ml PM buffer: PIPES pH 7.0, MgCl2, HPLC H2O, Paclitaxel, mix well, store at rt • Then add 26.4 μL of 10 mg/ml microtubules to 724 μL of the above PM buffer to make 750 μL of microtubule working solution @350 μg/mL microtubules (store at rt)
Stock HSET enzyme solution (3.1)—keep on ice • Add 1.33 μL 10.2 μM HSET Prepi (SEQ-000096_002-01_01) to 1358 μL assay buffer to make a 10 nM stock for a 5 nM final assay concentration (1/1020 dilution).
HSET/Microtubule working solution (3.3) • Mix solutions 3.1 and 3.2 in the ratio of 2.5:1 (1214.3 μL 3.1+485.7 μL 3.2) keep at rt for 15 min • 3.2 is diluted 3.5-fold, 3.1 is diluted 1.4-fold BLANK solution is 357 μL 2XAB+143 μL microtubule working solution 3.2. (Same proportions as HSET/Microtubule working solution (3.3))
ATP Working solution is 1 μL 10 mM UltraPure ATP (Promega kit)+999 μL ddH20 gives 10 μM ATP for a 3 μM final assay concentration, stored on ice.
Assay procedure in PROXIPLATE 384 PLUS WHITE (Perkin Elmer) plates (Remove 2.4 mL ADP Glo and 4.5 mL Kinase detection reagent from freezer to warm up to rt) • Add 3.5 μL BLANK solution to assay plate (column 12) • Add 3.5 μL HSET/Microtubule solution (3.3) (columns 1-11 & 13-24) • Centrifuge at 1000 rpm for 1 min • (pre-incubate enzyme and compound for 10 min)
Add 1.5 μL of 10 μM ATP to start reaction gives a final [HSET] of 5 nM, [ATP] of 3 μM and [microtubule] of 70 μg/mL, centrifuge at 1000 rpm for 1 min and incubated at rt for 80 min.
After the 80-minute incubation, stop reaction by adding 5 μL ADP-Glo reagent to all wells. Centrifuge for 1 min at 1000 rpm, leave for 40 min at rt.
In the dark/away from direct light, add 10 μL Kinase Detection Reagent (KDR) to all wells, Seal plate with a Topseal (Perkin Elmer Cat #6050185) and centrifuge as above, leave for 40 min at rt covered in foil. […]
Background: ADP-Glo first removes unused ATP, then detects ADP through luciferase.
With `CCOC(=O)c1sc(NC(=O)CCNC(=O)c2cc(/C=C/c3ccccc3)cc(C(=O)OC)c2)nc1C` [Example 22, Ethyl 2-[3-[[3-methoxycarbonyl-5-[(E)-styryl]benzoyl]amino]-propanoylamino]-4-methyl-thiazole-5-carboxylate], the IC50 is 6350 nM. The figure for `CCOC(=O)c1sc(NC(=O)CCNC(=O)c2cccc(-c3ncon3)c2)nc1C` [Example 23, Ethyl 2-(3-(3-(1,2,4-oxadiazol-3-yl)benzamido)propanamido)-4-methylthiazole-5-carboxylate] is 146 nM; for `CCOC(=O)c1sc(NC(=O)CCNC(=O)c2cc(Cl)cc(-c3noc(C)n3)c2)nc1C` [Example 24, Ethyl 2-(3-(3-chloro-5-(5-methyl-1,2,4-oxadiazol-3-yl)benzamido)-propanamido)-4-methylthiazole-5-carboxylate] it is 55 nM. Regarding `CCCOC(=O)c1sc(NC(=O)CCNC(=O)c2cc(Cl)cc(-c3noc(C)n3)c2)nc1C` [Example 25, Propyl 2-(3-(3-chloro-5-(5-methyl-1,2,4-oxadiazol-3-yl)benzamido)propanamido)-4-methylthiazole-5-carboxylate], the half-inhibitory concentration (IC50) came out at 13 nM. On to `CCCOC(=O)c1sc(NC(=O)CCNC(=O)c2cc(C)cc(-c3noc(C)n3)c2)nc1C` [Example 26, Propyl 4-methyl-2-(3-(3-methyl-5-(5-methyl-1,2,4-oxadiazol-3-yl)benzamido)propanamido)thiazole-5-carboxylate], for which the IC50 was 13 nM.

With `CCCOC(=O)c1cc(NC(=O)CCNC(=O)c2cc(C)cc(-c3noc(C)n3)c2)nn1C` [Example 27, Propyl 1-methyl-3-(3-(3-methyl-5-(5-methyl-1,2,4-oxadiazol-3-yl)benzamido)propanamido)-1 H-pyrazole-5-carboxylate], the IC50 amounted to 116 nM.

With `CCCOC(=O)c1sc(NC(=O)CCNC(=O)c2cc(C#N)cc(C(F)(F)F)c2)nc1C` [Example 28, Propyl 2-(3-(3-cyano-5-(trifluoromethyl)benzamido)propanamido)-4-methylthiazole-5-carboxylate], the IC50 was 2240 nM.

With `CCCOC(=O)c1sc(NC(=O)CCNC(=O)c2cc(C(=O)OC)cc(C(C)(C)C)c2)nc1C` [Example 29, Propyl 2-(3-(3-(tert-butyl)-5-(methoxycarbonyl)benzamido)propanamido)-4-methylthiazole-5-carboxylate], the IC50 was 77 nM. In the case of `CCCOC(=O)c1sc(NC(=O)CCNC(=O)c2cc(C#N)cc(C(=O)OC)c2)nc1C` [Example 30, Propyl 2-(3-(3-cyano-5-(methoxycarbonyl)benzamido)propanamido)-4-methylthiazole-5-carboxylate], the IC50 came to 186 nM. On to `Cc1nc(-c2cc(Cl)cc(C(=O)NCCC(=O)Nc3nc(C)c(C(C)(C)C)s3)c2)no1` [Example 31, N-[3-[(5-tert-butyl-4-methyl-thiazol-2-yl)amino]-3-oxo-propyl]-3-chloro-5-(5-methyl-1,2,4-oxadiazol-3-yl)benzamide], for which the IC50 was 191 nM. Consider `CCCOC(=O)c1sc(NC(=O)CCNC(=O)c2cc(-c3noc(C)n3)cc(C(F)(F)F)c2)nc1C` [Example 32, Propyl 4-methyl-2-(3-(3-(5-methyl-1,2,4-oxadiazol-3-yl)-5-(trifluoromethyl)benzamido)propanamido)thiazole-5-carboxylate], for which the IC50 turned out to be 11 nM.

As to `CCCOC(=O)c1sc(NC(=O)CCNC(=O)c2cc(C(=O)OC)cc([N+](=O)[O-])c2)nc1C` [Example 33, Propyl 2-[3-[(3-methoxycarbonyl-5-nitro-benzoyl)amino]propanoylamino]-4-methyl-thiazole-5-carboxylate], the IC50 was determined as 161 nM. As for `CCOC(=O)c1sc(NC(=O)CCNC(=O)c2cccc(-c3nc(C)no3)c2)nc1C` [Example 34, Ethyl 4-methyl-2-(3-(3-(3-methyl-1,2,4-oxadiazol-5-yl)benzamido)propanamido)thiazole-5-carboxylate], the IC50 was determined as 101 nM.

By IC50 is commonly meant the concentration that gives 50% inhibition.
